In patent US11708348B2, “Protease inhibitors for treatment of coronavirus infections” (The Scripps Research Institute, priority 2021, dated 2023):

The compounds below were run on SARS-CoV-2 strain USA-WA1/2020 (assay: microbe, parasite or virus in culture). Details: Severe acute respiratory syndrome coronavirus 2, HeLa-ACE2, 24 h, HeLa-ACE2 cells, SARS-CoV-2 infection, 24 h; class symbols; read-out: EC50, uM (Hela).
Type: cell-based

First: CC(C)C[C@H](NC(=O)C1CCC(=O)O1)C(=O)N[C@@H](C[C@@H]1CCNC1=O)C(=O)COC(F)(F)F (stereo partly drawn) [Compound 213, N-((S)-4-methyl-1-oxo-1-(((S)-3-oxo-1-((S)-2-oxopyrrolidin-3-yl)-4-(trifluoromethoxy)butan-2-yl)amino)pentan-2-yl)-5-oxotetrahydrofuran-2-carboxamide]
Second: CC(C)C[C@H](NC(=O)C(=O)NC1COC1)C(=O)N[C@@H](C[C@@H]1CCNC1=O)C(=O)COC(F)(F)F [Compound 244, N1-((S)-4-methyl-1-oxo-1-(((S)-3-oxo-1-((S)-2-oxopyrrolidin-3-yl)-4-(trifluoromethoxy)butan-2-yl)amino)pentan-2-yl)-N2-(oxetan-3-yl)oxalamide]
The EC50 of the first is higher: 0.5 to 1 µM for the first, 0.05 to 0.2 µM for the second. The second is the more potent here.

First: Cc1ccc(C2(NC(=O)C(=O)N[C@@H](CC(C)C)C(=O)N[C@@H](C[C@@H]3CCNC3=O)C(=O)COC(F)(F)F)CC2)cc1 [Compound 186, N1-((S)-4-methyl-1-oxo-1-(((S)-3-oxo-1-((S)-2-oxopyrrolidin-3-yl)-4-(trifluoromethoxy)butan-2-yl)amino)pentan-2-yl)-N2-(l-(p-tyolyl)-cyclopropyl)oxalamide]
Second: Cc1cc(F)ccc1NC(=O)C(=O)N[C@@H](CC(C)C)C(=O)N[C@@H](C[C@@H]1CCNC1=O)C(=O)COc1c(F)c(F)cc(F)c1F [Compound 74, N1-(4-fluoro-2-methylphenyl)-N2-((S)-4-methyl-1-oxo-1-(((S)-3-oxo-1-((S)-2-oxopyrrolidin-3-yl)-4-(2,3,5,6-tetrafluorophenoxy)butan-2-yl)amino)pentan-2-yl)oxalamide]
The EC50 of the first is lower: under 0.05 µM for the first, 0.2 to 0.5 µM for the second. The first is the more potent here.

First: CC(C)C[C@H](NC(=O)C(=O)NC1CC1)C(=O)N[C@@H](C[C@@H]1CCNC1=O)C(=O)COc1c(F)c(F)cc(F)c1F [Compound 98, N1-cyclopropyl-N2-((S)-4-methyl-1-oxo-1-(((S)-3-oxo-1-((S)-2-oxopyrrolidin-3-yl)-4-(2,3,5,6-tetrafluorophenoxy)butan-2-yl)amino)pentan-2-yl)oxalamide]
Second: CC(C)C[C@H](NC(=O)C(=O)Nc1ccccc1C(C)(C)C)C(=O)N[C@@H](C[C@@H]1CCNC1=O)C(=O)COc1c(F)c(F)cc(F)c1F [Compound 33, N1-(2-(tert-butyl)phenyl)-N2-((S)-4-methyl-1-oxo-1-(((S)-3-oxo-1-((S)-2-oxopyrrolidin-3-yl)-4-(2,3,5,6-tetrafluorophenoxy)butan-2-yl)amino)pentan-2-yl)oxalamide]
The EC50 of the first is higher: 0.05 to 0.2 µM for the first, under 0.05 µM for the second.

`CC(C)C[C@@H](OC(=O)NC(C)(C)C)C(=O)N1CC2(CC2)C[C@H]1C(=O)N[C@@H](C[C@@H]1CCNC1=O)C(=O)COC(F)(F)F` [Compound 328, (R)-4-methyl-1-oxo-1-((S)-6-(((S)-3-oxo-1-((S)-2-oxopyrrolidin-3-yl)-4-(trifluoromethoxy)butan-2-yl)carbamoyl)-5-azaspiro[2.4]heptan-5-yl)pentan-2-yl tert-butylcarbamate] and `O=C(N[C@@H](CC1CC1)C(=O)N[C@@H](C[C@@H]1CCNC1=O)C(=O)COC(F)(F)F)c1ncc(-c2ccccc2)[nH]1` [Compound 223, N-((S)-3-cyclopropyl-1-oxo-1-(((S)-3-oxo-1-((S)-2-oxopyrrolidin-3-yl)-4-(trifluoromethoxy)butan-2-yl)amino)propan-2-yl)-5-phenyl-1H-imidazole-2-carboxamide] cannot be ordered by EC50: under 0.05 µM for the first, under 0.05 µM for the second.

Work on `COc1cccc2[nH]c(C(=O)N[C@@H](CC(C)C)C(=O)N[C@@H](C[C@@H]3CCNC3=O)C(=O)COC(F)F)cc12` [Compound 198, N—((S)-1-(((S)-4-(difluoromethoxy)-3-oxo-1-((S)-2-oxopyrrolidin-3-yl)butan-2-yl)amino)-4-methyl-1-oxopentan-2-yl)-4-methoxy-1H-indole-2-carboxamide] yielded an EC50 of 0.2 to 0.5 µM.

Same assay, conditions: Severe acute respiratory syndrome coronavirus 2, HeLa-ACE2, 24 h, HeLa-ACE2 cells, SARS-CoV-2 infection, 24 h; read-out: EC50, uM (Hela)

First: CC(C)Cn1cc(C(=O)N2CC3(CC3)C[C@H]2C(=O)N[C@@H](C[C@@H]2CCNC2=O)C(=O)COC(F)(F)F)nn1 [Compound 695, (S)-5-(1-isobutyl-1H-1,2,3-triazole-4-carbonyl)-N-((S)-3-oxo-1-((S)-2-oxopyrrolidin-3-yl)-4-(trifluoromethoxy)butan-2-yl)-5-azaspiro[2.4]heptane-6-carboxamide]
Second: CCC(OC)C(=O)N1CC2(CC2)C[C@H]1C(=O)N[C@@H](C[C@@H]1CCNC1=O)C(=O)COC(F)(F)F (stereo partly drawn) [Compound 758, (6S)-5-(2-methoxybutanoyl)-N-((S)-3-oxo-1-((S)-2-oxopyrrolidin-3-yl)-4-(trifluoromethoxy)butan-2-yl)-5-azaspiro[2.4]heptane-6-carboxamide]
The EC50 of the first is lower: 0.05 to 0.2 µM for the first, 0.2 to 0.5 µM for the second.

`CC(C)(C)C(=O)N1CC2(CC2)C[C@H]1C(=O)N[C@@H](C[C@@H]1CCNC1=O)C(=O)COC(F)(F)F` [Compound 665, (S)-N-((S)-3-oxo-1-((S)-2-oxopyrrolidin-3-yl)-4-(trifluoromethoxy)butan-2-yl)-5-pivaloyl-5-azaspiro[2.4]heptane-6-carboxamide] and `CC(O)C(F)(F)C(=O)N1CC2(CC2)C[C@H]1C(=O)N[C@@H](C[C@@H]1CCNC1=O)C(=O)COC(F)(F)F` (stereo partly drawn) [Compound 756, (6S)-5-(2,2-difluoro-3-hydroxybutanoyl)-N-((S)-3-oxo-1-((S)-2-oxopyrrolidin-3-yl)-4-(trifluoromethoxy)butan-2-yl)-5-azaspiro[2.4]heptane-6-carboxamide] fall in the same range of EC50: 0.05 to 0.2 µM for the first, 0.05 to 0.2 µM for the second.

`CC(F)(F)CNC(=O)C(=O)N1C[C@H]2[C@@H]([C@H]1C(=O)N[C@@H](C[C@@H]1CCNC1=O)C(=O)COC(F)(F)F)C2(C)C` [Compound 484, (1R,2S,5S)-3-(2-((2,2-difluoropropyl)amino)-2-oxoacetyl)-6,6-dimethyl-N-((S)-3-oxo-1-((S)-2-oxopyrrolidin-3-yl)-4-(trifluoromethoxy)butan-2-yl)-3-azabicyclo[3.1.0]-hexane-2-carboxamide] and `Cn1ccc(NC(=O)C(=O)N2C[C@H]3[C@@H]([C@H]2C(=O)N[C@@H](C[C@@H]2CCNC2=O)C(=O)COC(F)(F)F)C3(C)C)n1` [Compound 535, (1R,2S,5S)-6,6-dimethyl-3-(2-((l-methyl-1H-pyrazol-3-yl)amino)-2-oxoacetyl)-N-((S)-3-oxo-1-((S)-2-oxopyrrolidin-3-yl)-4-(trifluoromethoxy)butan-2-yl)-3-azabicyclo-[3.1.0]hexane-2-carboxamide] fall in the same range of EC50: 0.05 to 0.2 µM for the first, 0.05 to 0.2 µM for the second.

First: CC(C)(C#N)NC(=O)C(=O)N1C[C@@H]2CCC[C@@H]2[C@H]1C(=O)N[C@@H](C[C@@H]1CCNC1=O)C(=O)COC(F)(F)F [Compound 566, (1S,3aR,6aS)-2-(2-((2-cyanopropan-2-yl)amino)-2-oxoacetyl)-N-((S)-3-oxo-1-((S)-2-oxopyrrolidin-3-yl)-4-(trifluoromethoxy)butan-2-yl)octahydrocyclo-penta[c]pyrrole-1-carboxamide]
Second: CC1(C)[C@@H]2[C@@H](C(=O)N[C@@H](C[C@@H]3CCCNC3=O)C(=O)COC(F)(F)F)N(C(=O)C(=O)NC3CCCCC3)C[C@@H]21 [Compound 470, (1R,2S,5S)-3-(2-(cyclohexylamino)-2-oxoacetyl)-6,6-dimethyl-N-((S)-3-oxo-1-((S)-2-oxopiperidin-3-yl)-4-(trifluoromethoxy)butan-2-yl)-3-azabicyclo[3.1.0]-hexane-2-carboxamide]
The EC50 of the first is higher: 0.05 to 0.2 µM for the first, under 0.05 µM for the second.

Compared with `O=C(NCC(=O)N1CC2(CC2)C[C@H]1C(=O)N[C@@H](C[C@@H]1CCNC1=O)C(=O)COC(F)(F)F)c1ccccc1F` [Compound 437, (S)-5-((2-fluorobenzoyl)glycyl)-N-((S)-3-oxo-1-((S)-2-oxopyrrolidin-3-yl)-4-(trifluoromethoxy)butan-2-yl)-5-azaspiro[2.4]heptane-6-carboxamide], `O=C1NCC[C@H]1C[C@H](NC(=O)[C@@H]1CC2(CC2)CN1C(=O)c1ccccc1C(F)(F)F)C(=O)COC(F)(F)F` [Compound 686, (S)-N-((S)-3-oxo-1-((S)-2-oxopyrrolidin-3-yl)-4-(trifluoromethoxy)butan-2-yl)-5-(2-(trifluoromethyl)benzoyl)-5-azaspiro[2.4]heptane-6-carboxamide] is lower in EC50: 0.05 to 0.2 µM for the first, under 0.05 µM for the second.

First: [2H]C([2H])([2H])C([2H])([2H])C([2H])([2H])C(=O)N1CC2(CC2)C[C@H]1C(=O)N[C@@H](C[C@@H]1CCNC1=O)C(=O)COC(F)(F)F [Compound 736, (S)-5-(butanoyl-d7)-N-((S)-3-oxo-1-((S)-2-oxopyrrolidin-3-yl)-4-(trifluoromethoxy)butan-2-yl)-5-azaspiro[2.4]heptane-6-carboxamide]
Second: CC(=O)N1C[C@H](C(F)(F)F)C[C@H]1C(=O)N[C@@H](C[C@@H]1CCNC1=O)C(=O)COC(F)(F)F [Compound 724, (2S,4R)-1-acetyl-N-((S)-3-oxo-1-((S)-2-oxopyrrolidin-3-yl)-4-(trifluoromethoxy)butan-2-yl)-4-(trifluoromethyl)pyrrolidine-2-carboxamide]
The EC50 of the first is lower: under 0.05 µM for the first, 0.05 to 0.2 µM for the second.

`Cc1ccccc1NC(=O)C(=O)NC(CC1CCOCC1)C(=O)N[C@@H](C[C@@H]1CCNC1=O)C(=O)COC(F)(F)F` (stereo partly drawn) [Compound 524, N1-(1-oxo-1-(((S)-3-oxo-1-((S)-2-oxopyrrolidin-3-yl)-4-(trifluoromethoxy)butan-2-yl)amino)-3-(tetrahydro-2H-pyran-4-yl)propan-2-yl)-N2-(o-tolyl)oxalamide] and `CC(C)C[C@H](NC(=O)C(=O)NC12CC(C(F)(F)F)(C1)C2)C(=O)N[C@@H](C[C@@H]1CCNC1=O)C(=O)COC(F)(F)F` [Compound 596, N1-((S)-4-methyl-1-oxo-1-(((S)-3-oxo-1-((S)-2-oxopyrrolidin-3-yl)-4-(trifluoromethoxy)butan-2-yl)amino)pentan-2-yl)-N2-(3-(trifluoromethyl)bi-cyclo[1.1.1]pentan-1-yl)oxalamide] cannot be ordered by EC50: under 0.05 µM for the first, under 0.05 µM for the second.

`CC1(C)[C@@H]2[C@@H](C(=O)N[C@@H](C[C@@H]3CCNC3=O)C(=O)COC(F)(F)F)N(C(=O)[C@H](O)c3ccccc3F)C[C@@H]21` [Compound 407, (1R,2S,5S)-3-((R)-2-(2-fluorophenyl)-2-hydroxyacetyl)-6,6-dimethyl-N-((S)-3-oxo-1-((S)-2-oxopyrrolidin-3-yl)-4-(trifluoromethoxy)butan-2-yl)-3-azabicyclo[3.1.0]hexane-2-carboxamide] was tested, and the EC50 was under 0.05 µM.
